Structures can show the parent of a compound that is named as a salt.
Key:
Format in all cases: cell-based, human
SMN2 mRNA = test: Splicing RT-qPCR panel, SMN2 canonical junction (CJ) mRNA; settings: Homo sapiens, read-out: SMN2 CJ (decrease in CJ mRNA levels, IC50)
Method in brief: (§1)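 A673 cells (DMEM, 10% FBS) or K562 cells (IMDM, 10% FBS) treated 24 h at 37 °C with an 11-point 3-fold dilution, top 10 uM, DMSO ≤0.25%. Canonical-junction mRNA quantified in lysates by RT-qPCR, normalised to GAPDH, GUSB or PPIA and to DMSO (2^−ΔΔCt), then converted to % response.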

Target C mRNA = test: Splicing RT-qPCR panel, Target C canonical junction (CJ) mRNA; settings: Homo sapiens, read-out: Target C CJ (decrease in CJ mRNA levels, IC50)
Method in brief: as §1

HiBiT-tagged HTT protein = test: HiBiT protein abundance assay, HTT (K562 HiBiT knock-in); settings: HiBiT knock-in cells, 24 hours
Method in brief: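 Endogenously HiBiT-tagged K562 knock-in lines treated 24 h at 37 °C with 10-point 3-fold dilutions (top 10 μM final, DMSO ≤0.25%) in IMDM+1% FBS. Lytic Nano-Glo luminescence normalized to DMSO and unmodified K562 controls; four-parameter fit gives 50%-abundance concentration (IC50).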

Target C = test: HiBiT protein abundance assay, Target C (K562 HiBiT knock-in); settings: HiBiT knock-in cells, 24 hours
Method in brief: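 K562 HiBiT knock-in cells (10000/well) in IMDM + 1% FBS were treated for 24 h at 37° C. with a 10-point 3-fold dilution series (top 10 μM final), with DMSO ≤0.25%. Unmodified K562 served as baseline. HiBiT lytic luminescence was normalized to controls, and IC50 was interpolated at 50% from a four-parameter fit.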

Row | Compound | IC50 (SMN2 mRNA) | IC50 (Target C mRNA) | IC50 (HiBiT-tagged HTT protein) | IC50 (Target C)
1 | Cn1cc2cc(-c3cnc4cc(N5CC[C@H](NC6CC6)C5)ccc4n3)c(O)c(F)c2n1 [Compound 176, 5-[6-[(3S)-3-(cyclopropylamino)318quinoxaline-1-yl]318quinoxaline-2-yl]-7-fluoro-2-methyl-indazol-6-ol] | < 0.1 µM | 0.1 to 1 µM | < 0.1 µM | < 0.1 µM
2 | Cc1c(O)c(-c2ncc3cc(N4CC[C@@H](N)C4)cnc3n2)cc2cn(C)nc12 [Compound 159, (R)-5-(6-(3-aminopyrrolidin-1-yl)pyrido[2,3-d]pyrimidin-2-yl)-2,7-dimethyl-2H-indazol-6-ol 2,2,2-trifluoroacetate] | < 0.1 µM | 0.1 to 1 µM | < 0.1 µM | 0.1 to 1 µM
3 | Cc1cn2nc(-c3ccc4cc(NC5CCNCC5)cnc4n3)cc(C)c2n1 [Compound 210, 7-{2,8-dimethylimidazo[1,2-b]pyridazin-6-yl}-N-(piperidin-4-yl)-1,8-naphthyridin-3-amine; trifluoroacetic acid] | 0.1 to 1 µM | > 10 µM | 1 to 10 µM | 1 to 10 µM
4 | CN[C@@H]1CCN(c2cnc3nc(-c4cc(F)c5nc(C)cn5c4)ncc3c2)C1 [Compound 202, (3R)-1-(2-{8-fluoro-2-methylimidazo[1,2-a]pyridin-6-yl}pyrido[2,3-d]pyrimidin-6-yl)-N-methylpyrrolidin-3-amine] | < 0.1 µM | 0.1 to 1 µM | 0.1 to 1 µM | 0.1 to 1 µM
5 | C[C@@H]1CN(c2cnc3nc(-c4cc5cn(C)nc5c(F)c4O)ccc3c2)C[C@H](C)N1 [Compound 206] | < 0.1 µM | 0.1 to 1 µM | < 0.1 µM | 0.1 to 1 µM
6 | CN[C@@H]1CCN(c2cnc3nc(-c4cc5cn(C)nc5c(C)c4O)nc(OC)c3c2)C1 [Compound 211, 5-{4-methoxy-6-[(3R)-3-(methylamino)pyrrolidin-1-yl]pyrido[2,3-d]pyrimidin-2-yl}-2,7-dimethylindazol-6-ol] | < 0.1 µM | 0.1 to 1 µM | < 0.1 µM | < 0.1 µM
7 | Cc1cn2nc(-c3ccc4cc(N(C)C5CCNCC5)cnc4n3)cc(C)c2n1 [Compound 205, 7-{2,8-dimethylimidazo[1,2-b]pyridazin-6-yl}-N-methyl-N-(piperidin-4-yl)-1,8-naphthyridin-3-amine] | 0.1 to 1 µM | > 10 µM | > 10 µM | > 10 µM
8 | Cc1cn2cc(-c3cnc4nc(C5CCNCC5)ccc4c3)cc(C)c2n1 [Compound 201] | < 0.1 µM | < 0.1 µM | > 10 µM | > 10 µM
9 | Cc1c(O)c(-c2cc(Cl)c3cc(N(C)C4CCNC4)cnc3n2)cc2cn(C)nc12 (stereo not shown) [Compound 204, 5-[4-chloro-6-(367pyrrolidine-3-ylamino)-1,8-naphthyridin-2-yl]-2,7-dimethylindazol-6-ol] | < 0.1 µM | > 10 µM | 0.1 to 1 µM | 1 to 10 µM
10 | CNC1CCN(c2cnc3nc(-c4cc5cn(C)nc5c(C)c4O)ccc3n2)C1 (stereo not shown) [Compound 192, 2,7-dimethyl-5-{2-[3-(methylamino)337pyrrolidine-1-yl]pyrido[2,3-b]pyrazin-6-yl}indazol-6-ol] | < 0.1 µM | 0.1 to 1 µM | 0.1 to 1 µM | 0.1 to 1 µM
11 | Cn1cc2cc(-c3cnc4cc(N5CCC(NC6CC6)C5)ccc4n3)c(O)c(F)c2n1 (stereo not shown) [Compound 175, 5-[6-[3-(cyclopropylamino)pyrrolidin-1-yl]quinoxalin-2-yl]-7-fluoro-2-methyl-indazol-6-ol] | < 0.1 µM | 0.1 to 1 µM | < 0.1 µM | 0.1 to 1 µM
12 | Cn1cc2cc(-c3cnc4nc(N5CCNCC5)cc(Cl)c4c3)cc(F)c2n1 [Compound 101, 4-chloro-6-(7-fluoro-2-methyl-2H-indazol-5-yl)-2-(piperazin-1-yl)-1,8-naphthyridine] | < 0.1 µM | > 10 µM | 1 to 10 µM | 1 to 10 µM
13 | COc1nc(-c2cc3cn(C)nc3c(C)c2O)nc2ncc(N3CCNCC3)cc12 [Compound 162, 5-[4-methoxy-6-(piperazin-1-yl)pyrido[2,3-d]pyrimidin-2-yl]-2,7-dimethylindazol-6-ol] | < 0.1 µM | 1 to 10 µM | 0.1 to 1 µM | 0.1 to 1 µM
14 | Cc1c(O)c(-c2ccc3nc(N4C[C@@H](C)N[C@@H](C)C4)cnc3n2)cc2cn(C)nc12 [Compound 195, 5-{2-[(3R,5S)-3,5-dimethylpiperazin-1-yl]pyrido[2,3-b]pyrazin-6-yl}-2,7-dimethylindazol-6-ol] | < 0.1 µM | > 10 µM | 1 to 10 µM | 1 to 10 µM
15 | Cc1c(O)c(-c2ncc3cc(N4CC[C@H](N)C4)cnc3n2)cc2cn(C)nc12 [Compound 160, (S)-5-(6-(3-aminopyrrolidin-1-yl)pyrido[2,3-d]pyrimidin-2-yl)-2,7-dimethyl-2H-indazol-6-ol 2,2,2-trifluoroacetate] | < 0.1 µM | 1 to 10 µM | < 0.1 µM | 0.1 to 1 µM

The remaining lines, values ahead:

Row | IC50 (SMN2 mRNA) | IC50 (Target C mRNA) | IC50 (HiBiT-tagged HTT protein) | IC50 (Target C) | Compound
16 | < 0.1 µM | > 10 µM | 1 to 10 µM | 1 to 10 µM | Cn1cc2cc(-c3cc(Cl)c4cc(N5CCN6CCCC6C5)cnc4n3)cc(F)c2n1 (stereo not shown) [Compound 216, 4-chloro-2-(7-fluoro-2-methylindazol-5-yl)-6-{hexahydro-1H-pyrrolo[1,2-a]pyrazin-2-yl}-1,8-naphthyridine trifluoroacetic acid]
17 | < 0.1 µM | 0.1 to 1 µM | < 0.1 µM | 0.1 to 1 µM | COc1nc(-c2cc3cn(C)nc3c(F)c2O)nc2ncc(N3C[C@@H](C)N[C@@H](C)C3)cc12 [Compound 218]
18 | < 0.1 µM | 1 to 10 µM | < 0.1 µM | 0.1 to 1 µM | CN[C@H]1CCN(c2cnc3nc(-c4cc5cn(C)nc5c(C)c4O)nc(OC)c3c2)C1 [Compound 212, 5-{4-methoxy-6-[(3S)-3-(methylamino)pyrrolidin-1-yl]pyrido[2,3-d]pyrimidin-2-yl}-2,7-dimethylindazol-6-ol]
19 | < 0.1 µM | 1 to 10 µM | 1 to 10 µM | 1 to 10 µM | C[C@@H]1CN(c2cnc3nc(-c4cc(F)c5nn(C)cc5c4)cc(Cl)c3c2)C[C@H](C)N1 [Compound 215]
20 | < 0.1 µM | 1 to 10 µM | 0.1 to 1 µM | 1 to 10 µM | C[C@@H]1CN(c2cnc3nc(-c4cc5cn(C)nc5cc4O)cc(Cl)c3c2)C[C@@H](C)N1 [Compound 243, 5-{4-chloro-6-[(3R,5R)-3,5-dimethylpiperazin-1-yl]-1,8-naphthyridin-2-yl}-2-methylindazol-6-ol hydrochloride]
21 | < 0.1 µM | 1 to 10 µM | 0.1 to 1 µM | 1 to 10 µM | Cc1c(O)c(-c2ncc3cc(N4C[C@@H](C)N[C@@H](C)C4)cnc3n2)cc2cn(C)nc12 [Compound 214]
22 | < 0.1 µM | 1 to 10 µM | 0.1 to 1 µM | 1 to 10 µM | C[C@@H]1CN(c2cnc3nc(-c4cc5cn(C)nc5c(F)c4O)cc(C#N)c3c2)C[C@H](C)N1 [Compound 266, 6-[(3R,5S)-3,5-dimethylpiperazin-1-yl]-2-(7-fluoro-6-hydroxy-2-methylindazol-5-yl)-1,8-naphthyridine-4-carbonitrile hydrochloride]

Reference: patent US20250326748A1, “COMPOUNDS AND METHODS FOR MODULATING SPLICING” (REMIX THERAPEUTICS INC., priority 2022, published 2025)
